Where “and” joins values, the source holds several entries; their conditions need not be identical. Identical values can stand only once. Like-named read-outs stand apart in the source and are kept apart here.
What was measured:
[1] = Pharmacokinetics after i.v. and oral application, beagle dog
Procedure: (§3) Pharmacokinetic studies used male Sprague Dawley rats, C57BL6 mice and Beagle dogs, obtained from Charles River (France, rodents) and Marshall (Italy, dogs). […] Blood was collected i.v., by sublingual bleeding or at sacrifice whereas a serial blood sampling allowed obtaining individual PK profiles in these species. Blood samples were taken between 5 min (intravenous) and 15 min (oral) up to 24 h (mice), 48 h (rat) and 408 h (dog).
(§4) The absorption and disposition parameters were estimated by a non-compartmental analysis of the mean blood concentration (n = 3 mice) or individual concentration (rats, dogs) versus time profile after oral and intravenous administration.

Aβ40 = assay: Rat PK/PD study: Aβ40 in forebrain and CSF after oral dosing; assay type: in vivo; conditions: for ED50: po, at 4 h, read-out: ED50 for inhibition of forebrain Aβ40
Procedure: Maximum activity was between 4 and 8 h, and Aβ40 concentrations returned to baseline after 24 h. Significant (>50 %) Aβ40 lowering was observed even at the lowest dose of 3 μmol/kg, and the effect saturated at higher doses.
(§1) Frozen rodent forebrains were homogenized in 9 volumes of ice-cold Tris-buffered saline (pH 7.4) containing Complete protease inhibitor cocktail (Roche Diagnostics, Penzberg, Germany) using a Sonifier 450 (Branson) and stored in aliquots at -80 °C. Triton X-100 soluble Aβ was extracted by mixing 50 μl 2 % Triton X-100 with 50 μl homogenate, incubating for 15 min on ice with vortexing, followed by ultracentrifugation at 100000xg for 15 min. The clear supernatant was diluted to a final forebrain dilution of 1:100 and used for analysis. For the extraction of insoluble amyloid peptides, 50 μl forebrain homogenate was mixed with 117 μl of 100 % formic acid and stored on ice for 15 min with vortexing. Samples were neutralized with 950 μl 1 M Tris base, containing Complete protease inhibitor cocktail (Roche, Basle, Switzerland) and stored overnight at room temperature. The supernatant after 15 min centrifugation at 14000 rpm was used for analysis.
(§2) Aβ38, 40 and 42 were determined using the electro-chemiluminescence immuno assay kits from Meso Scale Discovery (Rockville, MD, USA) in either singlet or triplex format. Samples and standards were prepared according to the manufactures protocols. The kit based on the antibody 4G8 was used for rat forebrain and CSF samples, and kits based on 6E10 were used for dog CSF or plasma and APP51/16 brain and CSF samples. Soluble APPα and sAPPβ from APP51/16 mice were determined from the 100000xg supernatant and analyzed with Meso Scale Discovery commercial kits. C-terminal fragments C83 and C99 were determined from Western blots. Forebrain homogenates dephosphorylated with lambda protein phosphatase as described and run on a 10 % Tris-bicine gel with 8 M urea. After transfer to Immobilon P membranes (Bio-Rad Bedford MA USA), bands were probed with APP C8 antibody (recognizing the C-terminus of APP) and detected with goat anti-mouse IgG Fab fragment AlexaFluor680 (Invitrogen). The same gel was used to visualize Aβ1-38, 1-40, and 1-42 using the N-terminal antibody beta1 and goat anti rabbit IgG IRdye 800CW (Odyssey). Full-length human APP was detected using an in house immunoassay based on the MSD ECL system as described.

[2] = Chronic treatment of mice: observations (mortality, hair colour, retina); assay type: in vivo; conditions: APP51/16 mice, 100 μmol/kg p.o. once daily
[3] = Blood pharmacokinetics and brain penetration in the rat, 30 μmol/kg oral; assay type: in vivo; conditions: for Cmax / AUC(0-t): male, Sprague Dawley, 30 umol/kg
Description: In vivo blood pharmacokinetics and brain penetration was investigated in the rat.

SweAPP CHO cells = assay: Aβ40 release from Swedish human APP751 CHO cells; conditions: Cricetulus griseus, 24 h, read-out: IC50 Aβ40 release
[4] = Dissociation constant (pKa); assay type: physicochemical
APP51/16 transgenic mice = assay: Chronic 6-week treatment of APP51/16 mice: APP metabolites, Aβ deposition and neuroinflammation; assay type: in vivo, mouse; conditions: for CSF Aβ40 reduction / CSF Aβ42 reduction: 100 μmol/kg/d 6 weeks
Procedure: as §1, §2

[5] = Octanol/water distribution coefficient; assay type: physicochemical; conditions: derived from apparent permeability across an artificial liquid membrane
Procedure: The octanol/water distribution coefficient was derived from the apparent permeability across an artificial liquid membrane. The PAMPA assay was done as described. MDCK cells overexpressing human p-glycoprotein (MDR1-MDCK cells, obtained from Prof. A. Berns, Netherlands Cancer Institute) were grown on HTS Multiwell plates, 1 μm pore size (Becton Dickinson). After formation of a tight monolayer, NB-360 was applied to either the upper or the lower chamber. After one hour, liquid was removed from the upper and lower chambers and analyzed by HPLC-MS. Apical-to-basolateral and basolateral-to-apical transport rates were calculated.

[6] = Pharmacokinetics after i.v. and oral application, mouse
Procedure: as §3, §4

wtAPP CHO cells = assay: Release of APP metabolites from wild-type human APP751 CHO cells; conditions: Cricetulus griseus, 24 h
[7] = approximate area under the effect curve, 0, 4, 24 h after last dose

SMILES: Cc1cc(C#N)cnc1C(=O)Nc1ccc(F)c([C@]2(C)CO[C@@](C)(C(F)(F)F)C(N)=N2)c1 [NB-360]
- Vol. of Distribution ([1]; 2 μmol/kg i.v.): 0.9 L/kg
- clearance ([1]; Beagle, blood, iv, 2 umol/kg): 0.4 mL/min/kg
- half-life ([1]; Beagle, blood, iv, 2 umol/kg): 36.2 h
- bioavailability ([1]; Beagle, blood, po, 2 umol/kg): 62%
- Aβ40 inhibition (Aβ40; 30 μmol/kg p.o., 4 h): 90.9% and ~ 90%
- Max effect (dose-response in brain) (Aβ40; based on 4 h data, Fig. 2d): 91%
- Aβ40 lowering (Aβ40; lowest dose 3 μmol/kg p.o.): > 50%
- ED50 (Aβ40; converted dose): 0.7 mg/kg
- ED50 (Aβ40): 1.6 ± 0.25 µmol/kg
- first appearance of grey hair patches [2]: 2-3 weeks
- mortality during treatment ([2]; 6 weeks): Two out of 17 mice in the treatment group died
- unbound AUC 0-24 h blood ([3]; blood, corrected for nonspecific binding): 0.63 µM·h
- unbound AUC 0-24 h brain ([3]; brain, corrected for nonspecific binding): 0.54 µM·h
- Cmax ([3]; blood): 1620 nM
- AUC(0-t) ([3]; blood, read-out: AUC 0-24 h blood): 10.2 µM·h
- Cmax ([3]; brain): 4010 nM
- AUC(0-t) ([3]; brain, read-out: AUC 0-24 h brain): 23.6 µM·h
- IC50 (SweAPP CHO cells): 33 nM
- pKa [4]: 7.1
- CSF Aβ40 reduction (APP51/16 transgenic mice; 4 h after the dose): > 90%
- CSF Aβ42 reduction (APP51/16 transgenic mice; 4 h after the dose): > 90%
- CSF Aβ40 reduction (APP51/16 transgenic mice; 24 h): about 60%
- CSF Aβ42 reduction (APP51/16 transgenic mice; 24 h): about 60%
- C99 reduction in Triton TX-100 forebrain extract (APP51/16 transgenic mice; 4 h after the last dose): about 80%
- sAPPβ reduction in Triton TX-100 forebrain extract (APP51/16 transgenic mice; 4 h after the last dose): about 80%
- C99 reduction in Triton TX-100 forebrain extract (APP51/16 transgenic mice; 24 h after the last dose): 57%
- sAPPβ reduction in Triton TX-100 forebrain extract (APP51/16 transgenic mice; 24 h after the last dose): 70%
- Formic-acid extracted Aβ 1-38 in forebrain homogenate (APP51/16 transgenic mice; NB-360 group, Mean ± SEM, N 14): 77.0 ± 24.9 pmol/g forebrain
- Formic-acid extracted Aβ 1-40 in forebrain homogenate (APP51/16 transgenic mice; NB-360 group, Mean ± SEM, N 14): 197.3 ± 43.4 pmol/g forebrain
- Formic-acid extracted Aβ 1-42 in forebrain homogenate (APP51/16 transgenic mice; NB-360 group, Mean ± SEM, N 14): 106.6 ± 20.9 pmol/g forebrain
- Plasma Aβ40 reduction, AUEC24h (APP51/16 transgenic mice; approximate area under the effect curve after last dose): 70%
- CSF Aβ40 reduction, AUEC24h (APP51/16 transgenic mice; [7]): approximately 75%
- CSF Aβ42 reduction, AUEC24h (APP51/16 transgenic mice; [7]): approximately 75%
- CSF sAPPβ reduction, AUEC24h (APP51/16 transgenic mice; [7]): approximately 75%
- C83 average increase above vehicle control (APP51/16 transgenic mice; forebrain extract, 4 and 24 h): 50%
- sAPPα average increase above vehicle control (APP51/16 transgenic mice; forebrain extract, 4 and 24 h): 50%
- Aβ 1-38, NB-360 group, change vs baseline (APP51/16 transgenic mice; formic-acid extract): -33.5 % p = 0.39
- Aβ 1-38, NB-360 group, change vs vehicle (APP51/16 transgenic mice; formic-acid extract): -68.0 % p = 0.015
- Aβ 1-40, NB-360 group, change vs baseline (APP51/16 transgenic mice; formic-acid extract): -16.1 % p = 0.52
- Aβ 1-40, NB-360 group, change vs vehicle (APP51/16 transgenic mice; formic-acid extract): -64.5 % p = 0.003
- Aβ 1-42, NB-360 group, change vs vehicle (APP51/16 transgenic mice; formic-acid extract): -69.3 % p = 0.0006
- number of Aβ deposits (large plaques, small plaques, granules) per 3 cortical sections (APP51/16 transgenic mice; irrespective of the deposit size): indistinguishable from baseline
- total area of cortical region of interest stained positively for NT12 (APP51/16 transgenic mice; mean ± SEM, p = 0.093 vs baseline, p <0.0001 vs vehicle): 0.209 ± 0.054%
- number of Iba-1 positive cell clusters in the cortex (APP51/16 transgenic mice; relative to vehicle-treated mice): substantially lower
- logP [5]: 3.7
- clearance ([6]; C57BL6, mouse, blood, iv, 2 umol/kg): 16 mL/min/kg
- bioavailability ([6]; C57BL6, mouse, blood, po, 6 umol/kg): 37%
- Terminal half-life after i.v. application ([6]; mouse, 2 μmol/kg i.v.): 3.6 h
- Vol. of Distribution ([6]; mouse, 2 μmol/kg i.v.): 4.6 L/kg
- IC50 (wtAPP CHO cells; read-out: IC50 Aβ40 release): 3 nM
- IC50 (wtAPP CHO cells; read-out: IC50 Aβ42 release): 3 nM
- IC50 (wtAPP CHO cells; read-out: IC50 sAPPβ release): 4 nM

Source: publication PMC4559881 (Molecular Neurodegeneration, 2015)
